This note sets out measurements from ChEMBL document CHEMBL3045356, “Synthesis and biological evaluation of a novel class as antileishmanial agent” (Med Chem Res, 2012).

Activity calls are given as the source filed them. The rule behind the calls is not given here.

The subject of series [1] is Leishmania major. Description: Antileishmanial activity against promastigote stage of Leishmania major MHOM/IL/81/FEBNI infected Swiss albino mouse assessed as inhibition of autoamputation of inoculated footpad at 20 umol administered 21 days post infection measured after 5 weeks relative to untreated mouse. In kind it is functional, organism-based.
The subject of series [2] is Leishmania major. Description: Antileishmanial activity against promastigote stage of Leishmania major MHOM/IL/81/FEBNI infected Swiss albino mouse assessed as decrease in cutaneous lesion progression at 20 umol administered 21 days post infection measured after 5 weeks relative to untreated mouse. The format is functional, organism-based.
Series [3] has as its system Leishmania major. As to the kind of experiment: Antileishmanial activity against promastigote stage of Leishmania major MHOM/IL/81/FEBNI infected Swiss albino mouse assessed as decrease in parasite number in cutaneous lesion at 20 umol administered 21 days post infection measured after 5 weeks by Giemsa staining. In kind it is functional, organism-based.
The subject of series [4] is Leishmania major. Description: Antileishmanial activity against promastigote stage of Leishmania major MHOM/IL/81/FEBNI assessed as parasite motility at 10 umol measured every 10 min for 1 hr by light microscopic analysis. In kind it is functional, organism-based.
Series [5] relates to Leishmania major. As to the kind of experiment: Antileishmanial activity against promastigote stage of Leishmania major MHOM/IL/81/FEBNI assessed as cell viability at 10 umol measured every day for 5 days by light microscopic analysis. In kind it is functional, organism-based.
The subject of series [6] is Mus musculus. As to the kind of experiment: Toxicity in Mus musculus Swiss albino (mouse) infected with promastigote stage of Leishmania major MHOM/IL/81/FEBNI assessed as severe irritation of epidermis at 20 umol administered 21 days post infection measured after 5 weeks. In kind it is organism-based. The following applies: in vivo, 840 h.
For series [7], the system named is Leishmania major. As to the kind of experiment: Antileishmanial activity against promastigote stage of Leishmania major MHOM/IL/81/FEBNI infected Swiss albino mouse assessed as decrease in parasite-induced inflammatory reaction in cutaneous lesion at 20 umol administered 21 days post infection measured after 5 weeks by Giemsa staining. In kind it is functional, organism-based.

For series [8], the system named is Leishmania major. As to the kind of experiment: Antileishmanial activity against promastigote stage of Leishmania major MHOM/IL/81/FEBNI infected Swiss albino mouse assessed as decrease in swelling and redness of inoculated footpad at 20 umol administered 21 days post infection measured after 5 weeks. In kind it is functional, organism-based.
Series [9] concerns Mus musculus. Description: Toxicity in Mus musculus Swiss albino (mouse) infected with promastigote stage of Leishmania major MHOM/IL/81/FEBNI assessed as deposition of haemosidrin in macrophages at 20 umol administered 21 days post infection measured after 5 weeks. In kind it is organism-based. The conditions noted are these: in vivo, 840 h.
Series [10] deals with Mus musculus. Description: Toxicity in Mus musculus Swiss albino (mouse) infected with promastigote stage of Leishmania major MHOM/IL/81/FEBNI assessed as vascular thrombosis at 20 umol administered 21 days post infection measured after 5 weeks. The format is organism-based. The following applies: in vivo, 840 h.
The test system of series [11] is Leishmania major. As to the kind of experiment: Antileishmanial activity against promastigote stage of Leishmania major MHOM/IL/81/FEBNI infected Swiss albino mouse assessed as inhibition of lesion development in inoculated footpad at 20 umol administered 21 days post infection measured after 5 weeks relative to untreated mouse. In kind it is functional, organism-based.

Series [12] has as its system Leishmania major. Description: Antileishmanial activity against promastigote stage of Leishmania major MHOM/IL/81/FEBNI infected Swiss albino mouse assessed as inhibition of gangrene in inoculated footpad at 20 umol administered 21 days post infection measured after 5 weeks relative to untreated mouse. The format is functional, organism-based.

For the compound `CC1=C(C(=O)NNC(=O)c2ccccc2O)C(c2ccc(N(C)C)cc2)NC(=S)N1` (stereo unspecified), the “inhibition of footpad autoamputation (active/not active)” value (“inhibition … (active/not active)” below) in the series with Leishmania major [1] is “Active”. Also, the outcome in the series on Leishmania major [2], in the series on Leishmania major [4] and in the series with Leishmania major [5] was Active. The outcome in the series with Leishmania major [3] was inactive.

For the compound `CC1=C(C(=O)NNC(=O)c2ccccc2O)C(c2cccc([N+](=O)[O-])c2)NC(=O)N1` (stereo unspecified), in the series with Mus musculus [6], the Activity result is given as “Toxic”. Besides, the result with Leishmania major [7], in the series with Leishmania major [3], with Leishmania major [4], in the series with Leishmania major [8] and in the series with Leishmania major [5] was Active.

For the compound `CC(=O)Nc1ccc(NC(=O)C2=C(C)NC(=O)NC2c2ccc(N(C)C)cc2)cc1` (stereo unspecified), the Activity result in the series on Mus musculus [9], in the series with Mus musculus [6] and with Mus musculus [10] was “Toxic” throughout. Also, in the series on Leishmania major [1], the “inhibition … (active/not active)” value is “Active”. The result in the series on Leishmania major [2], in the series with Leishmania major [4] and in the series with Leishmania major [5] was Active. Besides, in the series on Leishmania major [3], the outcome was inactive.

For `CC1=C(C(=O)NNC(=O)c2ccccc2O)C(c2ccc(N(C)C)cc2)NC(=O)N1` (stereo unspecified), the “inhibition … (active/not active)” value in the series on Leishmania major [1] is “inactive”. For the same compound, the inhibition entry with Leishmania major [11] and with Leishmania major [12] was “inactive” throughout. Also, the result with Leishmania major [2], with Leishmania major [4] and with Leishmania major [5] was Active. For the same compound, the outcome with Leishmania major [3] was inactive.

Consider `COc1cc(C2NC(=S)NC(C)=C2C(=O)NNC(=O)c2ccccc2O)cc(OC)c1OC` (stereo unspecified), for which the “inhibition … (active/not active)” value with Leishmania major [1] was “inactive”. In addition, the inhibition entry in the series on Leishmania major [11] and in the series on Leishmania major [12] was “inactive” each time. Further, the result with Leishmania major [2], in the series with Leishmania major [4] and with Leishmania major [5] was Active. Besides, the result with Leishmania major [3] was inactive.

`C/C=C/C(=O)NNC(=O)C1=C(C)NC(=S)NC1c1cccc([N+](=O)[O-])c1` (stereo unspecified): in the series on Mus musculus [6], the Activity result was “Non-toxic”. In addition, the outcome in the series on Leishmania major [7], in the series on Leishmania major [3], with Leishmania major [4], in the series with Leishmania major [8] and with Leishmania major [5] was Active.

Consider `CC1=C(C(=O)N(CCCl)CCCl)C(c2cccc([N+](=O)[O-])c2)NC(=S)N1` (stereo unspecified), for which the Activity entry with Mus musculus [6] is listed as “Non-toxic”. The result with Leishmania major [7], in the series with Leishmania major [3], with Leishmania major [4], in the series on Leishmania major [8] and in the series with Leishmania major [5] was Active.

For `CC1=C(C(=O)N(CCO)CCO)C(c2cccc([N+](=O)[O-])c2)NC(=S)N1` (stereo unspecified), the “inhibition … (active/not active)” value in the series with Leishmania major [1] is “Active”. For the same compound, the outcome in the series on Leishmania major [2], in the series with Leishmania major [4] and in the series with Leishmania major [5] was Active. For the same compound, the outcome with Leishmania major [3] was inactive.

On to `CC1=C(C(=O)NNC(=O)c2ccccc2O)C(c2cccc([N+](=O)[O-])c2)NC(=S)N1` (stereo unspecified), for which the Activity result in the series with Mus musculus [6] was “Toxic”. The outcome with Leishmania major [7], in the series with Leishmania major [3], in the series on Leishmania major [4], in the series on Leishmania major [8] and in the series with Leishmania major [5] was Active.
